The results in this text go back to US11603349B2, “Anti-fibrotic compounds” (Certa Therapeutics Pty Ltd, priority 2017, dated 2023).

In data set [1] the test system is TGF-β induced [14C]-proline incorporation in rat mesangial cells. Put plainly: [14C]-proline incorporation assay (collagen biosynthesis). Type of data set: cell-based. The conditions noted are these: Rattus norvegicus, Mesangial cell, 44 h, inhibition of TGF-β1 (1 ng/ml) induced [14C]-proline incorporation, IRMC cells.
Data set [2] can be described thus: MTS tetrazolium reduction cell viability assay. The conditions noted are these: rat, rat mesangial cells (1097/IRMC cells), TGF-β1 stimulated, CC50 (μM), vs 1% DMSO vehicle.

On to `COc1cccc(/C=C/C(=O)Nc2ccccc2C#N)c1OCCN(C)C` [Example 92, (E)-N-(2-cyanophenyl)-3-(2-(2-(dimethylamino)ethoxy)-3-methoxyphenyl)acrylamide], for which the half-maximal inhibitory concentration (IC50) in data set [1] worked out at 49.2 µM. For the same compound, the CC50 at 48 h in data set [2] amounted to 109 µM.
On the same counts, the results for `C#CCOCc1cc(/C=C/C(=O)Nc2ccccc2C(=O)O)ccc1OC` [Example 71, (E)-2-(3-(4-methoxy-3-((prop-2-yn-1-yloxy)methyl)phenyl)acrylamido)benzoic acid] are 12.2 µM and 116 µM.
Turning to `COc1cc(C2CC2C(=O)Nc2ccc(Cl)cc2)ccc1OCC1COC1` (centres unmarked) [Example 154, N-(4-chlorophenyl)-2-(3-methoxy-4-(oxetan-3-ylmethoxy)phenyl)cyclopropane-1-carboxamide], in data set [1], the IC50 turned out to be 8.97 µM. For the same compound, the CC50 at 48 h in data set [2] is greater than 300 µM.
In the same order, the values of `COc1cc(C2CC2C(=O)Nc2ccc(C#N)cc2)ccc1OC1CCN(C)C1` (centres unmarked) [Example 137, N-(4-cyanophenyl)-2-(3-methoxy-4-((1-methylpyrrolidin-3-yl)oxy)phenyl)cyclopropane-1-carboxamide] are 15.4 µM and 30.8 µM.
On the same counts, the results for `C#CCOc1ccc(/C=C/C(=O)Nc2ccccc2C(=O)NC2CCN(C)CC2)cc1OC` [Example 36, (E)-2-(3-(3-methoxy-4-(prop-2-yn-1-yloxy)phenyl)acrylamido)-N-(1-methylpiperidin-4-yl)benzamide] are 15.8 µM and 15.2 µM.
On to `C#CCOc1ccc(/C=C/C(=O)Nc2ccccc2C#N)c(OC2CCNCC2)c1OC` [Example 88, (E)-N-(2-cyanophenyl)-3-[3-methoxy-2-(4-piperidyloxy)-4-prop-2-ynoxy-phenyl]prop-2-enamide], for which, in data set [1], the IC50 stood at 4.45 µM. In data set [2], this compound returned a CC50 at 48 h of 12.4 µM.
On the same counts, the results for `C#CCOc1ccc(/C=C/C(=O)Nc2ccccc2F)cc1OC` [Example 1, (E)-N-(2-fluorophenyl)-3-(3-methoxy-4-(prop-2-yn-1-yloxy)phenyl)acrylamide] are 10.9 µM and greater than 300 µM.
In the same order, the values of `COc1ccc(/C=C/C(=O)Nc2cccc(Cl)c2)cc1OCc1cnn(C)c1` [Example 160, (E)-N-(3-chlorophenyl)-3-(4-methoxy-3-((1-methyl-1H-pyrazol-4-yl)methoxy)phenyl)acrylamide] are 30.4 µM and greater than 300 µM.
`C#CCOc1ccc(/C=C/C(=O)N2CCOc3ccccc32)cc1OC` [Example 12, (E)-1-(2,3-dihydro-4H-benzo[b][1,4]oxazin-4-yl)-3-(3-methoxy-4-(prop-2-yn-1-yloxy)phenyl)prop-2-en-1-one] showed a 50% inhibitory concentration (IC50) in data set [1] of 10.2 µM. Besides, the 50% cytotoxic concentration (CC50) at 48 h in data set [2] amounted to 335 µM.
As to `C#CCOc1ccc(/C=C/C(=O)Nc2ccccc2-c2nnc(C)o2)cc1OC` [Example 29, (E)-3-(3-methoxy-4-(prop-2-yn-1-yloxy)phenyl)-N-(2-(5-methyl-1,3,4-oxadiazol-2-yl)phenyl)-acrylamide], the midpoint of inhibition in data set [1], the IC50, lay at 25.6 µM. For the same compound, the half-maximal cytotoxic concentration (CC50) at 48 h in data set [2] is greater than 300 µM.
On the same counts, the results for `CCc1cc(/C=C/C(=O)Nc2ccccc2C(=O)O)ccc1OC` [Example 105, (E)-2-(3-(3-ethyl-4-methoxyphenyl)acrylamido)benzoic acid] are 8.44 µM and 79.7 µM.
Consider `C#CCOc1ccc(/C=C/C(=O)Nc2ccccc2-n2cnc(C)n2)cc1CC` [Example 114, (E)-3-(3-ethyl-4-(prop-2-yn-1-yloxy)phenyl)-N-(2-(3-methyl-1H-1,2,4-triazol-1-yl)phenyl)-acrylamide], for which half-maximal inhibition in data set [1] (IC50) required 14.3 µM. The compound also gave a 50% cytotoxic concentration (CC50) at 48 h in data set [2] of 82 µM.
The compound `C#CCOc1ccc(/C=C/C(=O)Nc2ccccc2-n2cnc(C)n2)cc1OC` [Example 23, (E)-3-(3-methoxy-4-(prop-2-yn-1-yloxy)phenyl)-N-(2-(3-methyl-1H-1,2,4-triazol-1-yl)phenyl)acryl-amide] returned a half-maximal inhibitory concentration (IC50) in data set [1] of 26.3 µM. In data set [2], half-maximal cytotoxicity (CC50 at 48 h) was put at 104 µM.
